In the supplement of paper PMC10307832:

What was measured:
Assay in all cases: relative viability (nuclei count vs DMSO), 5 days (fraction); higher = more cells survive
Carfilzomib + Pictilisib = compound: CC(C)C[C@H](NC(=O)[C@H](CCc1ccccc1)NC(=O)CN1CCOCC1)C(=O)N[C@@H](Cc1ccccc1)C(=O)N[C@@H](CC(C)C)C(=O)[C@@]1(C)CO1 [Carfilzomib] + CS(=O)(=O)N1CCN(Cc2cc3nc(-c4cccc5[nH]ncc45)nc(N4CCOCC4)c3s2)CC1 [Pictilisib] (partner 1 µM)
Method in brief: (§1)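 Cells from lung cancer lines were seeded into 1536-well plates and, one day later, dosed by pin tool. Treatments were either a single drug or a fixed dose of an anchor drug with five library-drug doses (not always all listed) in √10 steps. After 5 days, nuclei were stained in a one-step fixation (final 0.05% Triton X-100, 1% formaldehyde, 1 ug/ml Hoechst) and counted on 4× images, and relative viability is the treated-to-vehicle nuclei ratio, as the median of duplicate plates.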

Carfilzomib + Decitabine = compound: CC(C)C[C@H](NC(=O)[C@H](CCc1ccccc1)NC(=O)CN1CCOCC1)C(=O)N[C@@H](Cc1ccccc1)C(=O)N[C@@H](CC(C)C)C(=O)[C@@]1(C)CO1 [Carfilzomib] + Nc1ncn([C@H]2C[C@H](O)[C@@H](CO)O2)c(=O)n1 [Decitabine] (partner 2 µM)
Method in brief: as §1

Crizotinib + Navitoclax = compound: C[C@@H](Oc1cc(-c2cnn(C3CCNCC3)c2)cnc1N)c1c(Cl)ccc(F)c1Cl [Crizotinib] + CC1(C)CCC(c2ccc(Cl)cc2)=C(CN2CCN(c3ccc(C(=O)NS(=O)(=O)c4ccc(N[C@H](CCN5CCOCC5)CSc5ccccc5)c(S(=O)(=O)C(F)(F)F)c4)cc3)CC2)C1 [Navitoclax] (partner 0.5 µM)
Method in brief: as §1

Olaparib + Luminespib = compound: O=C(c1cc(Cc2n[nH]c(=O)c3ccccc23)ccc1F)N1CCN(C(=O)C2CC2)CC1 [Olaparib] + CCNC(=O)c1noc(-c2cc(C(C)C)c(O)cc2O)c1-c1ccc(CN2CCOCC2)cc1 [Luminespib] (partner 0.01 µM)
Method in brief: as §1

Cell Line	relative viability (Carfilzomib + Pictilisib; first compound 0.001 µM)	relative viability (Carfilzomib + Pictilisib; first compound 0.003162 µM)	relative viability (Carfilzomib + Pictilisib; first compound 0.01 µM)	relative viability (Carfilzomib + Pictilisib; first compound 0.03162 µM)	relative viability (Carfilzomib + Pictilisib; first compound 0.1 µM)	relative viability (Carfilzomib + Decitabine; first compound 0.001 µM)	relative viability (Carfilzomib + Decitabine; first compound 0.003162 µM)	relative viability (Carfilzomib + Decitabine; first compound 0.01 µM)	relative viability (Carfilzomib + Decitabine; first compound 0.03162 µM)	relative viability (Carfilzomib + Decitabine; first compound 0.1 µM)	relative viability (Crizotinib + Navitoclax; first compound 0.01 µM)	relative viability (Crizotinib + Navitoclax; first compound 0.03162 µM)	relative viability (Crizotinib + Navitoclax; first compound 0.1 µM)	relative viability (Crizotinib + Navitoclax; first compound 0.3162 µM)	relative viability (Crizotinib + Navitoclax; first compound 1 µM)	relative viability (Olaparib + Luminespib; first compound 0.08 µM)	relative viability (Olaparib + Luminespib; first compound 0.253 µM)	relative viability (Olaparib + Luminespib; first compound 2.53 µM)	relative viability (Olaparib + Luminespib; first compound 8 µM)
RERF-LC-KJ	0.528	0.469	0.675	0.265	0.149	0.744	0.721	0.807	0.422	0.207	1.18	0.767	1.13	0.682	1.02	1.22	1.08	1.23	1
SK-LU-1	0.518	0.653	0.541	0.201	0.15	0.591	0.713	0.625	0.262	0.23	0.829	0.851	0.887	0.938	0.806	0.228	0.178	0.194	0.199
SK-MES-1	0.338	0.419	0.337	0.283	0.174	0.385	0.375	0.437	0.356	0.181	1.2	1.29	1.25	–	1.2	0.841	0.774	0.727	0.604
SW 1573	0.517	0.512	0.404	0.277	0.0513	0.551	0.52	0.297	0.0743	0.0554	0.683	–	0.97	0.945	0.932	0.376	0.221	0.204	0.158
UMC-11	0.608	0.956	0.778	0.648	0.336	0.603	0.609	0.54	0.819	0.459	0.285	0.308	0.306	0.282	0.365	1.06	0.855	0.683	0.414
